The values below come from patent publication US20190365927A1, “COMPOSITION FOR PHOTODYNAMIC THERAPY USING GENE EXPRESSING FLUORESCENT PROTEIN AND PHOTOSENSITIZER, AND PHOTODYNAMIC THERAPY METHOD USING SAME” (priority 2017, published 2019).

The test system of one series is GFP cells (GFP-H460). The experiment in a line: Experiment using rat cannulation, counting GFP-cancer cells in blood. Type of series: in vivo. The following applies: cells pretreated with 100 μM RB, injected IV into SD rats, 473 nm 80 mW for 5 minutes at cannulated tubing. The protocol: (1) GFP cells (GFP-H460) were seeded into two 100-mm dishes at a concentration of 1×10^7 cells/ml. On the next day, 100 μM of rose bengal (RB) was applied thereto (in the subsequent procedure, light exposure was avoided as much as possible). In 4 hours after RB treatment, the cells were harvested using trypsin, suspended in FBS pre-culture medium at 2×10^6 cells/300 μl, and placed in a 1.5 ml tube.
Six out of 10 8 weeks aged SD rats were injected in IV (tail) manner with the cell solution. The […] sections of the 5 SD rats were incised. The carotid artery and venous vein were discovered and cannulated using a 279 μm ID×609 μm OD×152 μm wall sized polyethylene tubing (BD, 427401) wet with heparin. Thus, blood flow was carried out through the tubing. Irradiation of 473 nm light with an intensity of 80 mW to the cannulated tubing site was performed for 5 minutes. The irradiated rats were weighed and incubated overnight in a constant-temperature constant-humid chamber. […]
1 ml of 0.1 μg/ml DAPI/PBST solution was added thereto. […] GFP-cancer cells were counted using a fluorescent microscope (Nikon, Diaphot 300), and the numbers of GFP-cancer cells according to the presence or absence of light irradiation were compared with each other. […]

In series [1] the test system is GFP+ and GFP− NCI-H460 cells. The experiment in a line: In vitro fluorescence intensity measurement after blue light irradiation (FRET). The series is classed as cell-based, human. The conditions noted are these: RB 0, 5, 10, 50 uM, blue laser light 473 nm, FIG. 15. The procedure: Fluorescent intensities of GFP− and GFP+ cells after blue light irradiation were measured in the presence or absence of RB. The specific experimental procedure is as follows.
1×10^6 cells of GFP− and GFP+ NCI-H460 cell lines as produced by the method described in the 1-1 were cultured in a 75 cm^2 cell culture dish containing RPMI-1640 medium supplemented with 10% FBS. After 12 hours, the culture medium of the cell line was replaced with RPMI-1640 medium without FBS. Then, RBs of various concentrations (0 uM, 5 uM, 10 uM, 50 uM) were added thereto. The culturing was done for 4 hours to accumulate RB in the cells. Then, the cells were obtained by centrifugation. Pellets of each cell group were suspended in 1 ml PBS. Then, the cell was irradiated with blue laser light (473 nm, radiation dose rate=80 mW/cm^2). The light-emission spectrum of each cell group was measured using a spectrofluorometer (JASCO Inc.). Measurements in each group were repeated 5 times. The FRET efficiency was calculated by the following equation: […]
F(DA): GFP fluorescence intensity in the presence of RB, and
F(D): GFP fluorescence intensity in the absence of RB.

Series [2] can be described thus: Absorbance spectrum of the photosensitizer. Type of series: physicochemical. The following applies: FIG. 1A.

Turning to `O=C1OC2(c3cc(I)c(O)c(I)c3Oc3c2cc(I)c(O)c3I)c2c(Cl)c(Cl)c(Cl)c(Cl)c21` [RB, rose bengal], the “GFP-cancer cells in blood with or without light irradiation” value with GFP cells (GFP-H460) is on record as “only GFP cells were specifically killed”. In addition, the “emission intensity at 508 nm (emission peak of GFP)” value in series [1] is “decreases as the concentration of RB increases”. Besides, in series [2], the maximum absorbance is 549 nm and the shoulder absorbance spectrum amounted to 510 nm.
